Reference: patent US10738028B2, “Spiro three-membered ring, spiro five-membered ring peptide deformylase inhibitor and use thereof in antibacteria and anti-tumor” (priority 2016, dated 2020)
In brackets after ≈: the same amount, converted by molar mass.

How the values were obtained:
Format in all cases: cell-based
[1] = system: Enterococcus faecalis (EFA); assay: MIC, two-fold agar dilution (CLSI), clinical isolates
Text: (§1) 1. The invention adopts the two-fold agar dilution method recommended by the operating procedure of antimicrobial susceptibility testing set by American Clinical and Laboratory Standards Institute (CLSI) to determine the Minimum Inhibitory Concentration (MIC) of the test samples against the tested strains.

[2] = system: Enterococcus faecium (EFM); assay: as above
Text: as §1

[3] = system: Escherichia coli (including ESBLs, non-ESBLs); assay: as above
Text: as §1

[4] = system: Moraxella catarrhalis (BCA); assay: as above
Text: as §1

[5] = system: Streptococcus pneoumoniae (SPN); assay: as above
Text: as §1

[6] = system: methicillin-resistant Staphylococcus aureus (MRSA); assay: as above
Text: as §1

[7] = system: methicillin-resistant Staphylococcus epidermidis (MRSE); assay: as above
Text: as §1

[8] = system: methicillin-sensitive Staphylococcus aureus (MSSA); assay: as above
Text: as §1

[9] = system: methicillin-sensitive Staphylococcus epidermidis (MSSE); assay: as above
Text: as §1

[10] = system: HCT-116 colorectal cancer cell line; assay: CCK-8 proliferation inhibition; conditions: Homo sapiens, HCT-116, 72 h, concentration of 30 μM; 72 hours; CCK-8; read-out: HCT116 inhibition rate/%
Experimental: (1) HCT-116 colorectal cancer cell line, A549 lung cancer cell line, MGC-803 gastric cancer cell line, BEL-7402 liver cancer cell line, Jurkat T cell leukemia cell line, HL60 acute myeloid leukemia cell line, Hela cervical cancer cell line, MCF-7 breast cancer cell line, PC3 prostate cancer cell line and SAOS-2 osteosarcoma cell line were made into single cell suspension, 180 μL of which was inoculated into 96-well culture plate, which was cultured overnight in CO2 incubator (37° C., 5% CO2, 95% air).
(2) Each of the spiro three-membered ring, spiro five membered ring peptide deformylase inhibitors was dissolved in DMSO, and was further formulated into drug solution with required different final concentration using corresponding cell culture medium. The drug solutions were added to the above cells respectively (20 μL/well), with the control group added with 1‰ DMSO, and cultured in a CO2 incubator for 72 hours.
(3) After incubation for 72 hours, the culture solution was decanted, and 100 μL of 1:10 diluted CCK-8 solution was added.
Wherein, in step (1), the concentration of the single cell suspension was 2000 cells/well.
Wherein, in step (2), HCT-116 cells were cultured in McCoy's 5A medium (containing 10% newborn bovine serum, 1% double antibody); A549 and PC3 cells were cultured in F12 medium (containing 10% newborn bovine serum, 1% double antibody); MGC-803, BEL-7402, SAOS-2, Jurkat and HL60 cells were cultured in 1640 medium (containing 10% newborn bovine serum, 1% double antibody); and MCF-7 and Hela cells were cultured in DMEM high glucose medium (containing 10% newborn bovine serum, 1% double antibody).

## CCCC[C@H](CN(O)C=O)C(=O)N1CC2(CC2)C[C@H]1C(=O)Nc1ccno1 [Example 17]
[1]; strain EFA 15-1
  MIC (anti-bacterial activity): 8 µg/mL (≈ 21.1 µM)
[1]; strain EFA 15-2
  MIC (anti-bacterial activity): 8 µg/mL (≈ 21.1 µM)
[1]; strain EFA 15-3
  MIC (anti-bacterial activity): 2 µg/mL (≈ 5.29 µM)
[1]; strain EFA 15-4
  MIC (anti-bacterial activity): 8 µg/mL (≈ 21.1 µM)
[1]; strain EFA 15-5
  MIC (anti-bacterial activity): 8 µg/mL (≈ 21.1 µM)
[1]; strain EFA 15-6
  MIC (anti-bacterial activity): 8 µg/mL (≈ 21.1 µM)
[1]; strain EFA 15-9
  MIC (anti-bacterial activity): 8 µg/mL (≈ 21.1 µM)
[2]; strain EFM 15-1
  MIC (anti-bacterial activity): 1 µg/mL (≈ 2.64 µM)
[2]; strain EFM 15-2
  MIC (anti-bacterial activity): 2 µg/mL (≈ 5.29 µM)
[2]; strain EFM 15-3
  MIC (anti-bacterial activity): 0.5 µg/mL (≈ 1.32 µM)
[2]; strain EFM 15-4
  MIC (anti-bacterial activity): 2 µg/mL (≈ 5.29 µM)
[2]; strain EFM 15-5
  MIC (anti-bacterial activity): 1 µg/mL (≈ 2.64 µM)
[2]; strain EFM 15-6
  MIC (anti-bacterial activity): 2 µg/mL (≈ 5.29 µM)
[3]; strain ECO+ 15-1
  MIC (anti-bacterial activity): 32 µg/mL (≈ 84.6 µM)
[3]; strain ECO+ 15-2
  MIC (anti-bacterial activity): 32 µg/mL (≈ 84.6 µM)
[3]; strain ECO+ 15-3
  MIC (anti-bacterial activity): > 32 µg/mL
[3]; strain ECO+ 15-4
  MIC (anti-bacterial activity): > 32 µg/mL
[3]; strain ECO− 15-1
  MIC (anti-bacterial activity): 16 µg/mL (≈ 42.3 µM)
[3]; strain ECO− 15-2
  MIC (anti-bacterial activity): 32 µg/mL (≈ 84.6 µM)
[3]; strain ECO− 15-3
  MIC (anti-bacterial activity): > 32 µg/mL
[3]; strain ECO− 15-4
  MIC (anti-bacterial activity): 32 µg/mL (≈ 84.6 µM)
[4]; strain BCA 14-1
  MIC (anti-bacterial activity): 4 µg/mL (≈ 10.6 µM)
[4]; strain BCA 14-4
  MIC (anti-bacterial activity): 2 µg/mL (≈ 5.29 µM)
[4]; strain BCA 14-5
  MIC (anti-bacterial activity): 1 µg/mL (≈ 2.64 µM)
[4]; strain BCA 14-6
  MIC (anti-bacterial activity): 2 µg/mL (≈ 5.29 µM)
[4]; strain BCA 14-7
  MIC (anti-bacterial activity): 1 µg/mL (≈ 2.64 µM)
[4]; strain BCA 14-8
  MIC (anti-bacterial activity): 2 µg/mL (≈ 5.29 µM)
[4]; strain BCA 14-10
  MIC (anti-bacterial activity): 1 µg/mL (≈ 2.64 µM)
[5]; strain SPN 16-2
  MIC (anti-bacterial activity): 8 µg/mL (≈ 21.1 µM)
[5]; strain SPN 16-4
  MIC (anti-bacterial activity): 1 µg/mL (≈ 2.64 µM)
[6]; strain MRSA 15-1
  MIC (anti-bacterial activity): 1 µg/mL (≈ 2.64 µM)
[6]; strain MRSA 15-2
  MIC (anti-bacterial activity): 1 µg/mL (≈ 2.64 µM)
[6]; strain MRSA 15-3
  MIC (anti-bacterial activity): 1 µg/mL (≈ 2.64 µM)
[6]; strain MRSA 15-4
  MIC (anti-bacterial activity): 1 µg/mL (≈ 2.64 µM)
[7]; strain MRSE 15-1
  MIC (anti-bacterial activity): 0.25 µg/mL (≈ 0.661 µM)
[7]; strain MRSE 15-2
  MIC (anti-bacterial activity): 0.5 µg/mL (≈ 1.32 µM)
[7]; strain MRSE 15-3
  MIC (anti-bacterial activity): 0.5 µg/mL (≈ 1.32 µM)
[7]; strain MRSE 15-7
  MIC (anti-bacterial activity): 1 µg/mL (≈ 2.64 µM)
[8]; strain MSSA 15-3
  MIC (anti-bacterial activity): 1 µg/mL (≈ 2.64 µM)
[8]; strain MSSA 15-4
  MIC (anti-bacterial activity): 1 µg/mL (≈ 2.64 µM)
[8]; strain MSSA 15-5
  MIC (anti-bacterial activity): 0.25 µg/mL (≈ 0.661 µM)
[8]; strain MSSA 15-6
  MIC (anti-bacterial activity): 1 µg/mL (≈ 2.64 µM)
[9]; strain MSSE 15-3
  MIC (anti-bacterial activity): 1 µg/mL (≈ 2.64 µM)
[9]; strain MSSE 15-4
  MIC (anti-bacterial activity): 0.5 µg/mL (≈ 1.32 µM)
[9]; strain MSSE 15-5
  MIC (anti-bacterial activity): 0.5 µg/mL (≈ 1.32 µM)
[9]; strain MSSE 15-6
  MIC (anti-bacterial activity): 0.25 µg/mL (≈ 0.661 µM)
[10]
  inhibition at 30 µM: 13%

## CCCC[C@H](CN(O)C=O)C(=O)N1CC2(CC2)C[C@H]1C(=O)NC1CC1 [Example 18]
[1]; strain EFA 15-1
  MIC (anti-bacterial activity): 32 µg/mL (≈ 91.1 µM)
[1]; strain EFA 15-2
  MIC (anti-bacterial activity): 32 µg/mL (≈ 91.1 µM)
[1]; strain EFA 15-3
  MIC (anti-bacterial activity): 8 µg/mL (≈ 22.8 µM)
[1]; strain EFA 15-4
  MIC (anti-bacterial activity): 32 µg/mL (≈ 91.1 µM)
[1]; strain EFA 15-5
  MIC (anti-bacterial activity): 32 µg/mL (≈ 91.1 µM)
[1]; strain EFA 15-6
  MIC (anti-bacterial activity): 32 µg/mL (≈ 91.1 µM)
[1]; strain EFA 15-9
  MIC (anti-bacterial activity): 32 µg/mL (≈ 91.1 µM)
[2]; strain EFM 15-1
  MIC (anti-bacterial activity): 8 µg/mL (≈ 22.8 µM)
[2]; strain EFM 15-2
  MIC (anti-bacterial activity): 8 µg/mL (≈ 22.8 µM)
[2]; strain EFM 15-3
  MIC (anti-bacterial activity): 2 µg/mL (≈ 5.69 µM)
[2]; strain EFM 15-4
  MIC (anti-bacterial activity): 8 µg/mL (≈ 22.8 µM)
[2]; strain EFM 15-5
  MIC (anti-bacterial activity): 4 µg/mL (≈ 11.4 µM)
[2]; strain EFM 15-6
  MIC (anti-bacterial activity): 8 µg/mL (≈ 22.8 µM)
[3]; strain ECO+ 15-1
  MIC (anti-bacterial activity): 32 µg/mL (≈ 91.1 µM)
[3]; strain ECO+ 15-2
  MIC (anti-bacterial activity): 32 µg/mL (≈ 91.1 µM)
[3]; strain ECO+ 15-3
  MIC (anti-bacterial activity): 32 µg/mL (≈ 91.1 µM)
[3]; strain ECO+ 15-4
  MIC (anti-bacterial activity): 32 µg/mL (≈ 91.1 µM)
[3]; strain ECO− 15-1
  MIC (anti-bacterial activity): > 32 µg/mL
[3]; strain ECO− 15-2
  MIC (anti-bacterial activity): > 32 µg/mL
[3]; strain ECO− 15-3
  MIC (anti-bacterial activity): 32 µg/mL (≈ 91.1 µM)
[3]; strain ECO− 15-4
  MIC (anti-bacterial activity): 32 µg/mL (≈ 91.1 µM)
[4]; strain BCA 14-1
  MIC (anti-bacterial activity): 16 µg/mL (≈ 45.5 µM)
[4]; strain BCA 14-4
  MIC (anti-bacterial activity): 8 µg/mL (≈ 22.8 µM)
[4]; strain BCA 14-5
  MIC (anti-bacterial activity): 4 µg/mL (≈ 11.4 µM)
[4]; strain BCA 14-6
  MIC (anti-bacterial activity): 16 µg/mL (≈ 45.5 µM)
[4]; strain BCA 14-7
  MIC (anti-bacterial activity): 4 µg/mL (≈ 11.4 µM)
[4]; strain BCA 14-8
  MIC (anti-bacterial activity): 4 µg/mL (≈ 11.4 µM)
[4]; strain BCA 14-10
  MIC (anti-bacterial activity): 4 µg/mL (≈ 11.4 µM)
[5]; strain SPN 16-2
  MIC (anti-bacterial activity): 16 µg/mL (≈ 45.5 µM)
[5]; strain SPN 16-4
  MIC (anti-bacterial activity): 4 µg/mL (≈ 11.4 µM)
[6]; strain MRSA 15-1
  MIC (anti-bacterial activity): 2 µg/mL (≈ 5.69 µM)
[6]; strain MRSA 15-2
  MIC (anti-bacterial activity): 2 µg/mL (≈ 5.69 µM)
[6]; strain MRSA 15-3
  MIC (anti-bacterial activity): 2 µg/mL (≈ 5.69 µM)
[6]; strain MRSA 15-4
  MIC (anti-bacterial activity): 2 µg/mL (≈ 5.69 µM)
[7]; strain MRSE 15-1
  MIC (anti-bacterial activity): 2 µg/mL (≈ 5.69 µM)
[7]; strain MRSE 15-2
  MIC (anti-bacterial activity): 2 µg/mL (≈ 5.69 µM)
[7]; strain MRSE 15-3
  MIC (anti-bacterial activity): 2 µg/mL (≈ 5.69 µM)
[7]; strain MRSE 15-7
  MIC (anti-bacterial activity): 2 µg/mL (≈ 5.69 µM)
[8]; strain MSSA 15-3
  MIC (anti-bacterial activity): 2 µg/mL (≈ 5.69 µM)
[8]; strain MSSA 15-4
  MIC (anti-bacterial activity): 2 µg/mL (≈ 5.69 µM)
[8]; strain MSSA 15-5
  MIC (anti-bacterial activity): 2 µg/mL (≈ 5.69 µM)
[8]; strain MSSA 15-6
  MIC (anti-bacterial activity): 2 µg/mL (≈ 5.69 µM)
[9]; strain MSSE 15-3
  MIC (anti-bacterial activity): 2 µg/mL (≈ 5.69 µM)
[9]; strain MSSE 15-4
  MIC (anti-bacterial activity): 2 µg/mL (≈ 5.69 µM)
[9]; strain MSSE 15-5
  MIC (anti-bacterial activity): 2 µg/mL (≈ 5.69 µM)
[9]; strain MSSE 15-6
  MIC (anti-bacterial activity): 2 µg/mL (≈ 5.69 µM)
[10]
  inhibition at 30 µM: 5%
